According to EP1348696B1, “Use of optically active clausenamides for the preparation of pharmaceutical compositions, pharmaceutical compositions containing the same” (INSTITUTE OF MATERIA MEDICA, CHINESE ACADEMY OF MEDICAL …, priority 2002, dated 2003):

System: β-AP (25-35)-treated rats
Assay: Morris water maze, memory impairment induced by aggregated Aβ 25-35
Type: in vivo
Conditions: A β 25-35 alone
Description: Pathological features of Alzheimer's disease (AD) include extensive neuronal loss and the presence of numerous neurofibrillary tangles and senile plaques in the brain. The senile plaques contain amyloid fibrils derived from a 39-43 amino acids peptide referred to as β-amyloid or Aβ which can produce neurotoxicity. Aβ 25-35 poccesses the similar neurotoxicity and ability of self-aggregation as Aβ 1-42. Administrated aggregated Aβ 25-35 into rat's lateral cerebral ventricle induced memory impairment in Morris water maze. […] The latency for finding the platform beginning from 3th to 5th day in (-)clausenamide 8mg • kg^-1 and 40mg • kg^-1 groups was shorter than that of A β group. […] With increasing of training days, the initial heading angle became small. On the 3th day, the initial heading angle of A β group was larger than control. […] (see Tab.3)
There are four strategies for finding platform in Morris water maze: random, circle, taxis and line. In the beginning of training the search strategies for finding target is mainly circle and random, with the increasing of training, the percentage of the two strategies declined gradually, Beginning from the 3th day, declining speed in control and (-) clausenamide group was faster than A β ,(+) clausenamide and piracetam groups. Meanwhile, the appearance of taxis and line strategies in (-) clausenamide group increased markedly. Table 3a Effects of (-),(+) Clausenamide on the number of error of β-AP (25-35)-treated rats inone trial passive avoidance. Value is represented as MEAN±S.E.M.

A β 25-35: β-amyloid fragment with neurotoxicity and self-aggregation similar to Aβ 1-42; icv induces memory impairment (GSNKGAIIGLM; Amyloid-beta protein 42; UniProt P05067 696-706, looked up, fragment)
initial heading angle, Training days 1: 106.3±29.8
initial heading angle, Training days 2: 98.7±30.4
initial heading angle, Training days 3: 73.6±20.3
initial heading angle, Training days 4: 60.6±23.8
initial heading angle, Training days 5: 46.7±19.4
